Test results taken from patent US12668594B2, “TYK2 inhibitors and uses thereof” (Sudo Biosciences Limited, priority 2020, dated 2026).

Columns and labels:
TYK2-JH1 = target: T1, TYK2-JH1 (Homo sapiens, UniProt P29597); experiment: HTRF-based selectivity assay, TYK2 catalytic domain; format: biochemical; details: kinase domain (JH1), ATP 20 μM
T1 construct: recombinant purified His or GST-tagged catalytic domain for each enzyme; made in house
T1 sequence (P29597 897-1176 limits assumed): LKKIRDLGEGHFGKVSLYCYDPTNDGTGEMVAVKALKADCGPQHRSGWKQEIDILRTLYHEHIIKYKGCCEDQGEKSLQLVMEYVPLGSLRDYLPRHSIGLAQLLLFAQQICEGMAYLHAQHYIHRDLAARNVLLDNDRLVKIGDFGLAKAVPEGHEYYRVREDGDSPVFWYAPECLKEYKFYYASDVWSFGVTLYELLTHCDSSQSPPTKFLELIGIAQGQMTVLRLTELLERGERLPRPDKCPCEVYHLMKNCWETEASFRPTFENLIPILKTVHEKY
Method: (§1) The ability of compounds to inhibit the activity of JAK1, JAK2, JAK3 and TYK2 is measured using a recombinant purified His or GST-tagged catalytic domain for each enzyme (JAK1, JAK2 and TYK2 are generated in-house; JAK3 was purchased from Carna biosciences, Cat #08-046) in an HTRF format biochemical assay. The reactions employs a commercial peptide substrate from Cisbio (Cat #62TK0PEC). The basic assay protocol is as follows: first, 2.5 µL of diluted compounds (4×) in DMSO are dispensed into a 384-well Optiplate. Next, 2.5 μL of enzyme (final concentrations for enzymes are: TYK2-700 ng/mL, JAK1-80.6 ng/mL, JAK2-2.1 ng/mL and JAK3-171.8 ng/mL) is added and incubated at RT for 5-20 min. Finally, 5 μl of mixture of 2×ATP [Final concentration 20 μM for TYK2, 21.43 μM for JAK1, 14.7 μM for JAK2 and 2.12 μM for JAK3]+2× Substrate [Final concentration 217 nM for TYK2, 454.7 nM for JAK1, 200 nM for JAK2 and 257.4 nM for JAK3] is added to 384 well Optiplate. Composition of Kinase assay buffer used in the assay is as follows: HEPES 50 mM, EGTA 1 mM, MgCl2 10 mM, DTT2 mM, Tween-20 0.010 and water. Then the plates are shaken and then incubated at 26.5° C. for 60 min. At the end of the incubation, 10 μL of mixture of 2× detection mix [(EU3+Cryptate (1×)+Streptavidin-XL665 (final concentration: 62.5 nM) (HTRF KinEASE-TK kit Cat #62TK0PEC)] is added to the assay plate, shaken and incubated at 26.5° C. for 60 min. Plates are then read on a Perkin Elmer Envision for HTRF signal (665 nm reading/615 nm reading). After normalization to untreated controls, the percent inhibition of the HTRF signal at each compound concentration is calculated. The plot of percent inhibition versus the log of compound concentration is fit with a 4-parameter dose response equation to calculate IC50 values.

IFN-γ = experiment: Selectivity assay (SEAP) IFN-γ reporter cells; format: cell-based; details: Homo sapiens, IFN-γ reporter cells on HEK293 background, read-out: Selectivity assays (SEAP) nM or E-Max % IFN-γ
JAK1-JH1 = target: T2, JAK1-JH1 (Homo sapiens, UniProt P23458); experiment: HTRF-based selectivity assay, JAK1 catalytic domain; format: biochemical; details: kinase domain (JH1), ATP 21.43 μM
T2 construct: recombinant purified His or GST-tagged catalytic domain for each enzyme; made in house
Method: as §1

TYK2 [1] = target: T3, TYK2 (Homo sapiens, UniProt P29597); experiment: HEK-Blue IL-23 reporter assay (SEAP) for TYK2 pseudokinase inhibition; format: cell-based; set-up: HEK-Blue™ IL-23 and IFNα/β cells with a stably-integrated cytokine receptor and STAT3 or STAT1; host or cells: HEK-Blue IL-23 / HEK-Blue IFNα/β cells (HEK293 background); details: HEK-Blue IL-23 cells, 10 ng/mL human recombinant IL-23, SEAP reporter; read-out: IL23 IC50
Summary of the method: (§2)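 HEK-Blue cells carrying cytokine receptor and STAT3 or STAT1 SEAP reporter, pretreated 60 min with compound, then stimulated with 10 ng/mL IL-23 (22–24 h) or 1 ng/mL IFNα (16–18 h). SEAP read with QUANTI-Blue; IC50 by non-linear regression versus no-inhibitor and unstimulated controls.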

IL-2 = experiment: Selectivity assay (SEAP) IL-2 reporter cells; format: cell-based; details: Homo sapiens, IL-2 reporter cells on HEK293 background, read-out: Selectivity assays (SEAP) nM or E-Max % IL-2
TYK2 [2] = target: T3, TYK2; experiment: HEK-Blue IFNα/β reporter assay (SEAP) for TYK2 pseudokinase inhibition; format: cell-based; details: HEK-Blue IFNα/β cells, 1 ng/mL human recombinant IFNα
Summary of the method: as §2

JAK3-JH1 = target: T4, JAK3-JH1 (Homo sapiens, UniProt P52333); experiment: HTRF-based selectivity assay, JAK3 catalytic domain; format: biochemical; details: kinase domain (JH1), ATP 2.12 μM
T4 construct: recombinant purified His or GST-tagged catalytic domain for each enzyme; purchased Carna biosciences 08-046
Method: as §1

JAK2-JH1 = target: T5, JAK2-JH1 (Homo sapiens, UniProt O60674); experiment: HTRF-based selectivity assay, JAK2 catalytic domain; format: biochemical; details: kinase domain (JH1), ATP 14.7 μM
T5 construct: recombinant purified His or GST-tagged catalytic domain for each enzyme; made in house
Method: as §1

T2 sequence (P23458 875-1153 limits assumed): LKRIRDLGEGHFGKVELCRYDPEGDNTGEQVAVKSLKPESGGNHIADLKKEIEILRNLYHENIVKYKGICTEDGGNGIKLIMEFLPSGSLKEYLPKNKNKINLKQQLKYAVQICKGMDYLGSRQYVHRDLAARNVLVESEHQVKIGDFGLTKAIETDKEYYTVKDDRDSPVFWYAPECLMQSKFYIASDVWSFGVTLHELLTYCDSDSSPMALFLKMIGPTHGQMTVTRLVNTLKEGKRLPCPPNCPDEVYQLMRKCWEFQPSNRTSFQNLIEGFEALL
T4 sequence (P52333 822-1111 limits assumed): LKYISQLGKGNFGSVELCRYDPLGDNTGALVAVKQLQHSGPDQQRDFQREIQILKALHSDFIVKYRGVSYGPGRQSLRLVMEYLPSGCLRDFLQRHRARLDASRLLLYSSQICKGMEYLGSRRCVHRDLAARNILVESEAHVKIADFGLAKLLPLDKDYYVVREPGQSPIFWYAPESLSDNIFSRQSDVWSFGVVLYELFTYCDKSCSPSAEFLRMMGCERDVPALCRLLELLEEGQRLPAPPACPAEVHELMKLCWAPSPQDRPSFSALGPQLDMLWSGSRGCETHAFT
T3 sequence (P29597 whole entry): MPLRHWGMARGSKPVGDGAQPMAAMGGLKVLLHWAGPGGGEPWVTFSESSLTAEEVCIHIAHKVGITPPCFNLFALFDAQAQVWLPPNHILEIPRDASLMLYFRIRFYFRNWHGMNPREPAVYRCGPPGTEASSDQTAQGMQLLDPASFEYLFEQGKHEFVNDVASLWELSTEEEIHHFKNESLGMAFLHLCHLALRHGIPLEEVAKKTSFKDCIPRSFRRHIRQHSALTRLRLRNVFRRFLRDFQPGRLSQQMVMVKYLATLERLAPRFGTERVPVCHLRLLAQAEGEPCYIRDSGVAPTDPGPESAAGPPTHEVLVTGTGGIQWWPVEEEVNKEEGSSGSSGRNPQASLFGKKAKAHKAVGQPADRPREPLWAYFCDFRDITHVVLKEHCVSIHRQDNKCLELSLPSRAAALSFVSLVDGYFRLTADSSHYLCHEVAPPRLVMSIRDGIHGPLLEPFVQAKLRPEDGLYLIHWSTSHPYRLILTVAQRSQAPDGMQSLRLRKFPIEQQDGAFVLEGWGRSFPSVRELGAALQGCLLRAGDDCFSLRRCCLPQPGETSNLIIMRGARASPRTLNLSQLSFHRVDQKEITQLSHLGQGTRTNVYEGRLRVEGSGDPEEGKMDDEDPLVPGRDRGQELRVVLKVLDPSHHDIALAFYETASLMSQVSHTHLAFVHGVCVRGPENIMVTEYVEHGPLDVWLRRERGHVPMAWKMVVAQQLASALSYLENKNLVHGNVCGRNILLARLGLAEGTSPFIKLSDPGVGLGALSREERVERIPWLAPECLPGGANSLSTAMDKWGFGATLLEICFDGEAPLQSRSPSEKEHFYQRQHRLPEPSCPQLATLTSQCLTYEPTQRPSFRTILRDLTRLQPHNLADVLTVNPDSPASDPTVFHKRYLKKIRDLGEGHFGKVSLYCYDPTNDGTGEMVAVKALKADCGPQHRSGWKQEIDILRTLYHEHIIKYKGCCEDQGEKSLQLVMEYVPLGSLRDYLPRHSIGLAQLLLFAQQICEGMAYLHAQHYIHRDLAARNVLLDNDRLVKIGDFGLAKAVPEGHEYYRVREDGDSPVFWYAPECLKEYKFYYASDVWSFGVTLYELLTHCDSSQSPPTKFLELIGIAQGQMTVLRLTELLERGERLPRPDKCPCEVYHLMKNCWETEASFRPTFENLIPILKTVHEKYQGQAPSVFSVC
T5 sequence (O60674 849-1124 limits assumed): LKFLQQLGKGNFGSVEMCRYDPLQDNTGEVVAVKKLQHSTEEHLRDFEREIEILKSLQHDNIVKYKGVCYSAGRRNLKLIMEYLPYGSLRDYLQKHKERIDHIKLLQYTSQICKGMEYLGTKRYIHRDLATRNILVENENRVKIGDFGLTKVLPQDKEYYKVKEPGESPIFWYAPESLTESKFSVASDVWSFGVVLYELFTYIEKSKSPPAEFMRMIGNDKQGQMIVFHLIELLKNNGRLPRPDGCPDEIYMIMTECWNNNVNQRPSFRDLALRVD

Structure (SMILES) | IC50 (TYK2-JH1) [µM] | IC50 (IFN-γ) [nM] | IC50 (JAK1-JH1) [µM] | IC50 (TYK2 [1]) [µM] | IC50 (IL-2) [nM] | IC50 (TYK2 [2]) [µM] | IC50 (JAK3-JH1) [µM] | IC50 (JAK2-JH1) [µM]
N#Cc1ccc(-n2[nH]c(=O)c3cnc(Nc4ccc(F)cn4)cc32)cc1Cl [Compound I-88, 2-chloro-4-(6-((5-fluoropyridin-2-yl)amino)-3-oxo-2,3-dihydro-1H-pyrazolo[4,3-c]pyridin-1-yl)benzonitrile] | > 90 | > 90000 | > 90 | < 10 | > 90000 | < 10 | > 90 | > 90
Cc1cc(Nc2cc3c(cn2)c(=O)[nH]n3-c2ccc(OC(F)(F)F)c(F)c2)nc(C)n1 [Compound I-94, 6-((2,6-dimethylpyrimidin-4-yl)amino)-1-(3-fluoro-4-(trifluoromethoxy)phenyl)-1,2-dihydro-3H-pyrazolo[4,3-c]pyridin-3-one] | > 90 | > 90000 | > 90 | < 10 | > 90000 | < 10 | > 90 | > 90
Cc1cc(Nc2cc3c(cn2)c(=O)[nH]n3-c2cccc(CO)c2)nc(C)n1 [Compound I-117, 6-((2,6-dimethylpyrimidin-4-yl)amino)-1-(3-(hydroxymethyl)phenyl)-1,2-dihydro-3H-pyrazolo[4,3-c]pyridin-3-one] |  |  |  | < 10 |  | 10 to 30 |  | 
Cc1cc(Nc2cc3c(cn2)c(=O)[nH]n3-c2cccc(C(=O)NCc3ccccn3)c2)nc(C)n1 [Compound I-118, 3-(6-((2,6-dimethylpyrimidin-4-yl)amino)-3-oxo-2,3-dihydro-1H-pyrazolo[4,3-c]pyridin-1-yl)-N-(pyridin-2-ylmethyl)benzamide] |  |  |  | < 10 |  | > 90 |  | 
Cc1cc(Nc2cc3c(cn2)c(=O)[nH]n3-c2ccc3cn(C)nc3c2)nc(C)n1 [Compound I-121, 6-((2,6-dimethylpyrimidin-4-yl)amino)-1-(2-methyl-2H-indazol-6-yl)-1,2-dihydro-3H-pyrazolo[4,3-c]pyridin-3-one] |  |  |  | < 10 |  | < 10 |  | 
Cn1cc2ccc(-n3[nH]c(=O)c4cnc(Nc5ccc(F)cn5)cc43)cc2n1 [Compound I-122, 6-((5-fluoropyridin-2-yl)amino)-1-(2-methyl-2H-indazol-6-yl)-1,2-dihydro-3H-pyrazolo[4,3-c]pyridin-3-one] |  |  |  | < 10 |  | < 10 |  | 
CNC(=O)Nc1cc2c(cn1)c(=O)[nH]n2-c1ccccc1 [Compound I-125, 1-methyl-3-(3-oxo-1-phenyl-2,3-dihydro-1H-pyrazolo[4,3-c]pyridin-6-yl)urea] |  |  |  | < 10 |  | 30 to 90 |  | 
COC(=O)Nc1cc2c(cn1)c(=O)[nH]n2-c1ccccc1 [Compound I-126, methyl (3-oxo-1-phenyl-2,3-dihydro-1H-pyrazolo[4,3-c]pyridin-6-yl)carbamate] |  |  |  | < 10 |  | > 90 |  | 

Second part, the compound after the results:

IC50 (TYK2-JH1) [µM] | IC50 (IFN-γ) [nM] | IC50 (JAK1-JH1) [µM] | IC50 (TYK2 [1]) [µM] | IC50 (IL-2) [nM] | IC50 (TYK2 [2]) [µM] | IC50 (JAK3-JH1) [µM] | IC50 (JAK2-JH1) [µM] | Structure (SMILES)
30 to 90 | 30000 to 90000 | 30 to 90 | < 10 | > 90000 | < 10 | < 10 | 10 to 30 | O=c1[nH]n(-c2ccccc2)c2cc(Nc3ccc(F)cn3)ncc12 [Compound I-2, 6-((5-fluoropyridin-2-yl)amino)-1-phenyl-1,2-dihydro-3H-pyrazolo[4,3-c]pyridin-3-one]
> 90 | > 90000 | > 90 | < 10 | > 90000 | < 10 | > 90 | > 90 | COc1cccc(-n2[nH]c(=O)c3cnc(Nc4cc(C)nc(C)n4)cc32)c1F [Compound I-37, 6-((2,6-dimethylpyrimidin-4-yl)amino)-1-(2-fluoro-3-methoxyphenyl)-1,2-dihydro-3H-pyrazolo[4,3-c]pyridin-3-one]
> 90 | > 90000 | > 90 | < 10 | > 90000 | < 10 | > 90 | > 90 | COc1cccc(-n2[nH]c(=O)c3cnc(Nc4ccnc(C)n4)cc32)c1 [Compound I-49, 1-(3-methoxyphenyl)-6-((2-methylpyrimidin-4-yl)amino)-1,2-dihydro-3H-pyrazolo[4,3-c]pyridin-3-one]
> 90 | > 90000 | > 90 | < 10 | > 90000 | < 10 | > 90 | > 90 | Cc1cc(Nc2cc3c(cn2)c(=O)[nH]n3-c2cccc(F)c2)nc(C)n1 [Compound I-59, 6-((2,6-dimethylpyrimidin-4-yl)amino)-1-(3-fluorophenyl)-1,2-dihydro-3H-pyrazolo[4,3-c]pyridin-3-one]
> 90 | > 90000 | > 90 | < 10 | > 90000 | > 90 | > 90 | > 90 | Cc1cc(Nc2cc3c(cn2)c(=O)[nH]n3-c2ccc(Cl)cc2)nc(C)n1 [Compound I-65, 1-(4-chlorophenyl)-6-((2,6-dimethylpyrimidin-4-yl)amino)-1,2-dihydro-3H-pyrazolo[4,3-c]pyridin-3-one]
> 90 | > 90000 | > 90 | < 10 | > 90000 | < 10 | > 90 | > 90 | Cc1cc(Nc2cc3c(cn2)c(=O)[nH]n3-c2ccc(OC(F)(F)F)cc2)nc(C)n1 [Compound I-69, 6-((2,6-dimethylpyrimidin-4-yl)amino)-1-(4-(trifluoromethoxy)phenyl)-1,2-dihydro-3H-pyrazolo[4,3-c]pyridin-3-one]
> 90 | > 90000 | > 90 | < 10 | > 90000 | < 10 | > 90 | > 90 | Cc1cc(Nc2cc3c(cn2)c(=O)[nH]n3-c2ccc(OC(F)F)cc2)nc(C)n1 [Compound I-72, 1-(4-(difluoromethoxy)phenyl)-6-((2,6-dimethylpyrimidin-4-yl)amino)-1,2-dihydro-3H-pyrazolo[4,3-c]pyridin-3-one]
> 90 | > 90000 | > 90 | < 10 | > 90000 | < 10 | > 90 | > 90 | Cc1cc(Nc2cc3c(cn2)c(=O)[nH]n3-c2ccc(OCC(F)(F)F)cc2)nc(C)n1 [Compound I-73, 6-((2,6-dimethylpyrimidin-4-yl)amino)-1-(4-(2,2,2-trifluoroethoxy)phenyl)-1,2-dihydro-3H-pyrazolo[4,3-c]pyridin-3-one]
